From patent US11999727B2 (Tango Therapeutics, Inc., priority 2020, dated 2024)

What was measured:
PRMT5 [1] = biological target: T1, PRMT5 (Homo sapiens, UniProt O14744); experiment: PRMT5 biochemical IC50 assay with SAM as cofactor; details: PRMT5, SAM as cofactor; read-out: SAM IC50
T1 construct: purchased Viva (custom protein)

[2] = tested on: HAP1 MTAP-intact cell line; experiment: SDMA in-cell western assay, HAP1 MTAP-intact; type: cell-based; details: Homo sapiens, HAP1, SDMA in-cell western, HAP1 MTAP-intact; read-out: MTAP HAP1 intact IC50
Method in brief: (§1)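 Isogenic HAP1 pair: the MTAP-intact line expresses endogenous MTAP, and the deleted line is MTAP-null. Symmetric dimethylarginine was detected by in-cell western and IC50 values derived for each line.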

[3] = tested on: HAP1 MTAP-deleted cell line; experiment: SDMA in-cell western assay, HAP1 MTAP-deleted; type: cell-based; details: for IC50: Homo sapiens, HAP1, SDMA in-cell western, HAP1 MTAP-deleted, read-out: HAP 1 MTAP deleted IC50; for MTAP intact/deleted ratio: IC50 ratio HAP1 MTAP-intact / HAP1 MTAP-deleted, SDMA in-cell western
Method in brief: as §1

PRMT5 [4] = biological target: T1, PRMT5; experiment: PRMT5 biochemical IC50 assay with MTA as cofactor; details: PRMT5, MTA as cofactor; read-out: MTA IC50
[5] = tested on: HAP1 MTAP-deleted cell line; experiment: Viability assay, MTAP-deleted cell line; type: cell-based; details: Homo sapiens, HAP1, viability assay, MTAP-deleted cell line; read-out: HAP1 MTAP deleted viability
From the text: Table 1 additionally indicates IC50 values in a viability assay for the MTAP-deleted cell line (column 10), indicating the effect of treatment with compound on cell survival.

PRMT5 [6] = biological target: T1, PRMT5; experiment: PRMT5 biochemical IC50 assay with no cofactor; details: PRMT5, no cofactor; read-out: No Cofactor/ rel IC50
From the text: Table 1 indicates IC50 values (μM) against PRMT5 for exemplary compounds in the presence of SAM as cofactor, with no cofactor, and with MTA as cofactor, respectively (columns 4-6). […] Ki values can be calculated from the IC50 values as described in the Examples section. As detailed in the Examples section, for the assay performed in the presence of SAM, IC50=Ki×1.5 (Ki=IC50/1.5).

T1 sequence (O14744 whole entry): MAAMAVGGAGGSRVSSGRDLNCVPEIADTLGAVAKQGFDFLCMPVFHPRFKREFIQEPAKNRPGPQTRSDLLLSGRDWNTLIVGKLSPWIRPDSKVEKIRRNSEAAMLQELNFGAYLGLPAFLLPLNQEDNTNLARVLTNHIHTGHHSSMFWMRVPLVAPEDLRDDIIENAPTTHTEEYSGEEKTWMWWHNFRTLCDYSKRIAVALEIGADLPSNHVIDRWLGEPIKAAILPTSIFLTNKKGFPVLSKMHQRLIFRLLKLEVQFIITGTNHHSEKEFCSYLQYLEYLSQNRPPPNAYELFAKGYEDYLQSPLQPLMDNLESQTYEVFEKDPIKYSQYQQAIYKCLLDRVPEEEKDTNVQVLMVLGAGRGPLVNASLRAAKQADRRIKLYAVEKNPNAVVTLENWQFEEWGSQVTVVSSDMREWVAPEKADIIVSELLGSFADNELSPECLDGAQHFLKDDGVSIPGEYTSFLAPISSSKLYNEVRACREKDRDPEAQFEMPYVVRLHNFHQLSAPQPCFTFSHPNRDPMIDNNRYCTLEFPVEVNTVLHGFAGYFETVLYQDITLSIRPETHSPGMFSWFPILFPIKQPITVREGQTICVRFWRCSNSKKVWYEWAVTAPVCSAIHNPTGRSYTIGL
T1 sequence (Q9BQA1 whole entry partner): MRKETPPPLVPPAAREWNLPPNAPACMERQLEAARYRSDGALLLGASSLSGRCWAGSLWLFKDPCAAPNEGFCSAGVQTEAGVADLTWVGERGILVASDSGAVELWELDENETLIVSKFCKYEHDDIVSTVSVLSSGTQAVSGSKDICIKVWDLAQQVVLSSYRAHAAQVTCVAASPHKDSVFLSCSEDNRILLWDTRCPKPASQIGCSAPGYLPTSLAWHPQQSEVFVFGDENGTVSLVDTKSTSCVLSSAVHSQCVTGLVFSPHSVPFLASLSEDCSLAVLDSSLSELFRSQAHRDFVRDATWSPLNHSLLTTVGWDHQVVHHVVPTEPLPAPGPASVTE

Row | SMILES | IC50 (PRMT5 [1]) [nM] | IC50 [2] [nM] | IC50 [3] [nM] | MTAP intact/deleted ratio [3] | IC50 (PRMT5 [4]) [nM] | IC50 [5] [nM] | IC50 (PRMT5 [6]) [nM]
1 | C[C@@H]1CC[C@@H](c2ccnn2C)N(C(=O)C(=O)Nc2cncc(C(N)=O)c2)C1 (racemic) [Compound 81, 5-(2-(5-methyl-2-(1-methyl-1H-pyrazol-5-yl)piperidin-1-yl)-2-oxoacetamido)nicotinamide] | > 500 | > 1000 | 100 to 1000 | A (an IC50 ratio greater than or equal to 10 fold) | 50 to 500 | > 10000 | > 500
2 | Cc1cncc(NC(=O)C(=O)N2C[C@H](C)CC[C@H]2c2ccc3ccccc3c2)c1 (racemic) [Compound 83, rac-2-((2R,5S)-5-methyl-2-(naphthalen-2-yl)piperidin-1-yl)-N-(5-methylpyridin-3-yl)-2-oxoacetamide] | > 500 | > 1000 | > 1000 | C (an IC50 ratio of less than 3 fold) | 50 to 500 | > 10000 | > 500
3 | NC(=O)c1cncc(NC(=O)C(=O)N2CC3CCC(C3)C2c2ccccc2)c1 (racemic) [Compound 86, rac-5-[[2-oxo-2-[(1R,4R,5S)-4-phenyl-3-azabicyclo[3.2.1]octan-3-yl]acetyl]amino]pyridine-3-carboxamide] | 50 to 500 | > 1000 | 100 to 1000 | A (an IC50 ratio greater than or equal to 10 fold) | 50 to 500 | > 10000 | 50 to 500
4 | Cc1cncc(NC(=O)C(=O)N2C[C@H](C)CC[C@H]2c2ccc(F)cc2)c1 (racemic) [Compound 89, rac-2-((2R,5S)-2-(4-fluorophenyl)-5-methylpiperidin-1-yl)-N-(5-methylpyridin-3-yl)-2-oxoacetamide] | > 500 | > 1000 | > 1000 | C (an IC50 ratio of less than 3 fold) | 50 to 500 | > 10000 | 50 to 500
5 | Cc1cncc(NC(=O)C(=O)N2C[C@H](C)CC[C@H]2c2cccc(N)c2)c1 (racemic) [Compound 91, 2-[(2R,5S)-2-(3-aminophenyl)-5-methyl-1-piperidyl]-N-(5-methyl-3-pyridyl)-2-oxo-acetamide] | > 500 | > 1000 | > 1000 | C (an IC50 ratio of less than 3 fold) | 50 to 500 | > 10000 | > 500
6 | CNC(=O)c1ccc([C@H]2CC[C@H](C)CN2C(=O)C(=O)Nc2cncc(C)c2)cc1 (racemic) [Compound 92, N-methyl-4-(5-methyl-1-(2-((5-methylpyridin-3-yl)amino)-2-oxoacetyl)piperidin-2-yl)benzamide] | > 500 | > 1000 | > 1000 | C (an IC50 ratio of less than 3 fold) | 50 to 500 | > 10000 | > 500
7 | CC(=O)N1CCC(c2cccc(C3CCCCN3C(=O)C(=O)Nc3cnc(N)c(C)c3)c2)CC1 (racemic) [Compound 95, 2-(2-(3-(1-acetylpiperidin-4-yl)phenyl)piperidin-1-yl)-N-(6-amino-5-methylpyridin-3-yl)-2-oxoacetamide] | 50 to 500 | > 1000 | < 100 | A (an IC50 ratio greater than or equal to 10 fold) | < 50 | 1000 to 10000 | 50 to 500
8 | C[C@@H]1CC[C@@H](c2cccs2)N(C(=O)C(=O)Nc2cncc(C(N)=O)c2)C1 (racemic) [Compound 99, 5-(2-(5-methyl-2-(thiophen-2-yl)piperidin-1-yl)-2-oxoacetamido)nicotinamide] | 50 to 500 | > 1000 | < 100 | A (an IC50 ratio greater than or equal to 10 fold) | < 50 | 1000 to 10000 | 50 to 500
9 | C[C@@H]1CC[C@@H](c2cccnc2)N(C(=O)C(=O)Nc2cncc(C(N)=O)c2)C1 (racemic) [Compound 102, 5-[[2-[5-methyl-2-(3-pyridyl)-1-piperidyl]-2-oxo-acetyl]amino]pyridine-3-carboxamide] | 50 to 500 | > 1000 | 100 to 1000 | A (an IC50 ratio greater than or equal to 10 fold) | < 50 | > 10000 | 50 to 500
10 | Cc1ncc([C@@H]2CC[C@@H](C)CN2C(=O)C(=O)Nc2cnc(N)c(C)c2)cn1 (racemic) [Compound 107, rac-N-(6-amino-5-methylpyridin-3-yl)-2-((2R,5S)-5-methyl-2-(2-methylpyrimidin-5-yl)piperidin-1-yl)-2-oxoacetamide] | 50 to 500 | > 1000 | > 1000 | C (an IC50 ratio of less than 3 fold) | 50 to 500 | > 10000 | > 500
11 | Cc1cc(NC(=O)C(=O)N2C[C@H](C)CC[C@H]2c2cncnc2)cnc1N (racemic) [Compound 109, rac-N-(6-amino-5-methylpyridin-3-yl)-2-((2R,5S)-5-methyl-2-(pyrimidin-5-yl)piperidin-1-yl)-2-oxoacetamide] | 50 to 500 | > 1000 | > 1000 | B (an IC50 ratio greater than or equal to 3 fold but lower than 10 fold) | 50 to 500 | > 10000 | > 500
12 | CC(=O)Nc1cccc([C@@H]2CC[C@@H](C)CN2C(=O)C(=O)Nc2cncc(C)c2)c1 (racemic) [Compound 110, 2-[(2S,5R)-2-(3-acetamidophenyl)-5-methyl-1-piperidyl]-N-(5-methyl-3-pyridyl)-2-oxo-acetamide] | 50 to 500 | > 1000 | > 1000 | B (an IC50 ratio greater than or equal to 3 fold but lower than 10 fold) | 50 to 500 | > 10000 | 50 to 500
13 | CC(=O)Nc1ccc([C@@H]2CC[C@@H](C)CN2C(=O)C(=O)Nc2cncc(C)c2)cc1 (racemic) [Compound 111, 2-[(2R,5S)-2-(4-acetamidophenyl)-5-methyl-1-piperidyl]-N-(5-methyl-3-pyridyl)-2-oxo-acetamide] | 50 to 500 | > 1000 | 100 to 1000 | A (an IC50 ratio greater than or equal to 10 fold) | 50 to 500 | > 10000 | 50 to 500
14 | Cc1cc(NC(=O)C(=O)N2[C@@H](C)CCC[C@H]2c2ccccc2)cnc1N (racemic) [Compound 112, N-(6-amino-5-methyl-3-pyridyl)-2-[rac-(2R,6R)-2-methyl-6-phenyl-1-piperidyl]-2-oxo-acetamide] | 50 to 500 | 100 to 1000 | < 100 | B (an IC50 ratio greater than or equal to 3 fold but lower than 10 fold) | < 50 | 1000 to 10000 | 50 to 500
15 | COc1cc([C@@H]2CC[C@@H](C)CN2C(=O)C(=O)Nc2cncc(C(N)=O)c2)ccc1Cl (racemic) [Compound 114, rac-rac-5-{2-[(2R,5S)-2-(4-chloro-3-methoxyphenyl)-5-methylpiperidin-1-yl]-2-oxoacetamido}pyridine-3-carboxamide] | 50 to 500 | > 1000 | < 100 | A (an IC50 ratio greater than or equal to 10 fold) | < 50 | > 10000 | 50 to 500
16 | Cc1cc(C)cc([C@@H]2CC[C@@H](C)CN2C(=O)C(=O)Nc2cncc(C(N)=O)c2)c1 (racemic) [Compound 118, rac-5-{2-[(2R,5S)-2-(3,5-dimethylphenyl)-5-methylpiperidin-1-yl]-2-oxoacetamido}pyridine-3-carboxamide] | 50 to 500 | > 1000 | 100 to 1000 | A (an IC50 ratio greater than or equal to 10 fold) | < 50 | > 10000 | > 500
17 | NC(=O)c1cncc(NC(=O)C(=O)N2CCCC3(C2)OC[C@@H]2C[C@@H]23)c1 (mixture of isomers) [Compound 124, rac-5-{2-[(R,5S)-3-Oxaspiro[bicyclo[3.1.0]hexane-2,3′-piperidine]-1′-yl]-2-oxoacetamido}pyridine-3-carboxamide] | > 500 | > 1000 | > 1000 | C (an IC50 ratio of less than 3 fold) | 50 to 500 | > 10000 | > 500
18 | C[C@@H]1CC[C@@H](c2cccc(C(N)=O)c2)N(C(=O)C(=O)Nc2cncc(C(N)=O)c2)C1 (racemic) [Compound 125, rac-5-{2-[(2R,5S)-2-(3-Carbamoylphenyl)-5-methylpiperidin-1-yl]-2-oxoacetamido}pyridine-3-carboxamide] | 50 to 500 | > 1000 | > 1000 | B (an IC50 ratio greater than or equal to 3 fold but lower than 10 fold) | 50 to 500 | > 10000 | 50 to 500
